Test results as given in PMC2965131, “Histopathology and biochemistry analysis of the interaction between sunitinib and paracetamol in mice” (BMC Pharmacology, 2010).
Values joined by “and” are separate entries in the source; they are usually repeats but may differ in a detail not shown here. Identical values can stand only once. Blank lines part the entries; values can stand above or below the compound they belong to.

Key:
Male ICR mice [1] = test: Serum ALT and AST (liver function biomarkers); type: in vivo; conditions: for ALT serum concentration / AST serum concentration: mean ± SE
Experimental: (§1) Animals were fasted overnight prior to dose administration and randomly assigned to each of the four experimental groups. Mice in group A (n = 6) were administered saline; mice in group B mice (n = 6) were administered paracetamol only, 500 mg/kg IP. Group C was further subdivided into five different dose-groups of sunitinib only treatment: 25, 50, 80, 100 and 140 mg/kg administered PO (n = 6 for each dose group). Finally, mice in group D were co-administered paracetamol (500 mg/kg IP) and sunitinib at different doses: 25, 50, 80, 100 and 140 mg/kg PO (n = 6 each dose group). A feeding needle was used to ensure the full administration of the dose. Paracetamol was administered 15 minutes before sunitinib and animals were sacrificed 4 hours post sunitinib administration by cervical dislocation. Blood was obtained via cardiac puncture, allowed to clot, centrifuged (1500 rpm, 10 min, room temperature) and stored at -20°C until analysis. The liver and kidneys were excised from the mice and processed for histology assessment.
(§2) Biochemistry analysis of serum ALT and AST was performed using standard assay kits (BiooScientific Corp., USA). The concentration in duplicate samples was measured at 340 nm using a microplate reader (Tecan Infinite F200). Similarly, blood urea nitrogen (BUN) and creatinine concentration were measured using specific assay kits (BioAssay Systems, USA) and measured at 490 nm (duplicate samples) in a Dynex OpsysMR microplate reader.
(§3) The effect of the drug combination on the biomarker levels compared to sunitinib alone treatment was assessed with the aid of SPSS 16.0 with the significance level set at p < 0.05. Independent-samples t-test (for samples normally distributed based on Shapiro-Wilk test) for pair-wise comparison was performed at each dose of the sunitinib alone and sunitinib and paracetamol combination groups. Samples that were not normally distributed were tested using the Mann Whitney test.

Male ICR mice [2] = test: Serum BUN and creatinine (renal function biomarkers); type: in vivo; conditions: for BUN serum concentration / Creatinine serum concentration: mean ± SE, n = 6
Experimental: as §1, §2, §3

liver tissue = test: Histopathology assessment of liver (H&E, semi-quantitative grading); type: in vivo; conditions: mice
Experimental: as §1
(§4) Processing of tissue samples for histology assessment followed established procedures. In brief, the tissue samples were rinsed with 0.9% saline solution, fixed in 10% formalin. Then the diagonal section of the liver, the transverse section of the kidneys and heart and the horizontal section of the spleen and the posterior section of the brain were obtained and processed (Leica TP1020, Japan) as follows: (1) 10% neutral buffered formalin for 1 h, twice; (2) 70% alcohol for 1.5 h; (3) 80% alcohol for 1.5 h; (4) 90% alcohol for 1.5 h; (5) absolute alcohol for 1.5 h, twice; (6) xylene for 1.5 h, twice; (7) in molten wax at 65°C for 2.5 h two changes. The processed tissues were embedded in paraffin and sectioned at 4 microns thickness, placed on frosted glass slides and dried on a 70°C hot plate for 30 minutes.
(§5) The tissues were stained using the hematoxylin and eosin (H&E) stains. The sections were dewaxed in two changes of xylene (3 min each), hydrated in two changes of 100% ethanol, followed by 90% ethanol and 70% ethanol, for 3 min each, rinsed with water (3 min) and stained. […]
(§6) Histopathology changes were observed and grouped based on two main criteria: vascular changes including vessel congestion, extravasation of red blood cells and hematoma formation; and necrotic changes including necrosis, fibrosis, nuclear changes, abscesses and cell regeneration. The morphological changes were assessed semi-quantitatively, blind by two independent assessors and graded as follows: No change - 0 (no distinguishable change, 0%); mild change - 1 (initiation of changes, up to 30%); moderate change - 2 (patent changes, 31-60%); severe change - 3 (wide spread changes, 61-100%). […]

kidney tissue = test: Histopathology assessment of kidney (H&E, semi-quantitative grading); type: in vivo; conditions: mice
Experimental: as §1, §4
(§7) The tissues were stained using the hematoxylin and eosin (H&E) stains. The sections were dewaxed in two changes of xylene (3 min each), hydrated in two changes of 100% ethanol, followed by 90% ethanol and 70% ethanol, for 3 min each, rinsed with water (3 min) and stained. The stained tissues were dehydrated with 70% ethanol followed by 90% ethanol, placed in two changes of 100% ethanol for 3 minutes each and cleaned with two changes of xylene (3 min each).
(§8) Histopathology changes were observed and grouped based on two main criteria: vascular changes including vessel congestion, extravasation of red blood cells and hematoma formation; and necrotic changes including necrosis, fibrosis, nuclear changes, abscesses and cell regeneration. The morphological changes were assessed semi-quantitatively, blind by two independent assessors and graded as follows: No change - 0 (no distinguishable change, 0%); mild change - 1 (initiation of changes, up to 30%); moderate change - 2 (patent changes, 31-60%); severe change - 3 (wide spread changes, 61-100%). Then, using SPSS 16.0, the Mann-Whitney test was used for pair-wise comparison between the sunitinib alone group and the combination group at each dose. The differences were considered significance if p < 0.05.

heart tissue = test: Histopathology assessment of heart (H&E, semi-quantitative grading); type: in vivo; conditions: mice
Experimental: as §1, §4, §7, §8

brain tissue = test: Histopathology assessment of brain (H&E, semi-quantitative grading); type: in vivo; conditions: mice; for Brain histopathological changes: 4 h
Experimental: as §1
Processing of tissue samples for histology assessment followed established procedures. In brief, the tissue samples were rinsed with 0.9% saline solution, fixed in 10% formalin. […]
as §6

spleen = test: Histopathology assessment of spleen (H&E, semi-quantitative grading); type: in vivo; conditions: mice; for Spleen inflammatory changes: at any dose; for Spleen vascular changes: study doses of each treatment group
Experimental: as §1, §4, §5, §6

P450 = system: P450; set-up: method as in PMID 20020268; conditions: cited from earlier work
[3] = humans; cited from earlier work
plasma proteins = conditions: humans; cited from earlier work
mouse plasma proteins = system: mouse plasma proteins; set-up: method as in PMID 19169880; conditions: fraction unbound independent of concentration; cited from earlier work
[4] = set-up: method as in earlier work; conditions: monkeys; up; cited from earlier work
[5] = set-up: method as in PMID 16520665; conditions: mice; cited from earlier work
[6] = set-up: method as in PMID 19169880; conditions: mice, cited from earlier work
[7] = paracetamol 500 mg/kg IP alone, n = 6
[8] = paracetamol 500 mg/kg IP alone, n = 6, listed as paracetamol
[9] = sunitinib 25 mg/kg PO alone, 4 h post dose, n = 6
[10] = sunitinib 50 mg/kg PO alone, 4 h post dose, n = 6
[11] = sunitinib 80 mg/kg PO alone, 4 h post dose, n = 6
[12] = sunitinib 100 mg/kg PO alone, 4 h post dose, n = 6
[13] = sunitinib 140 mg/kg PO alone, 4 h post dose, n = 6
[14] = sunitinib alone 25-140 mg/kg PO, 4 h post dose
[15] = sunitinib 25 mg/kg PO alone, 4 h post dose
[16] = sunitinib 50 mg/kg PO alone, 4 h post dose
[17] = sunitinib 80 mg/kg PO alone, 4 h post dose
[18] = sunitinib 100 mg/kg PO alone, 4 h post dose
[19] = sunitinib 140 mg/kg PO alone, 4 h post dose
[20] = increasing doses of sunitinib alone (25-140 mg/kg PO), 4 h

Increase of creatinine serum concentration vs baseline control (Male ICR mice [2]; paracetamol 500 mg/kg IP alone): 21%
BUN serum concentration (Male ICR mice [2]; paracetamol 500 mg/kg IP alone): 33.81 ± 5.68 mg/dL
Creatinine serum concentration (Male ICR mice [2]; paracetamol 500 mg/kg IP alone): 0.644 ± 0.110 mg/dL
Brain vascular or inflammatory changes (brain tissue; paracetamol 500 mg/kg IP alone): no vascular or inflammatory changes
Spleen inflammatory changes (spleen): no inflammatory changes
Spleen vascular changes (spleen): did not reveal any vascular changes
SMILES: CC(=O)Nc1ccc(O)cc1 [PCM, paracetamol]
Mean serum AST relative to vehicle control group (Male ICR mice [1]; paracetamol 500 mg/kg IP alone): 2 fold
ALT serum concentration (Male ICR mice [1]; [7]): 249.6 ± 222.7 U/L
AST serum concentration (Male ICR mice [1]; [7]): 377.1 ± 173.6 U/L
ALT serum concentration (Male ICR mice [1]; [8]): 249.60 ± 222.72 U/L
AST serum concentration (Male ICR mice [1]; [8]): 377.09 ± 173.55 U/L
Hepatic inflammatory changes (grade) (liver tissue; paracetamol 500 mg/kg IP alone): moderate (moderate change - 2 (patent changes, 31-60%))
Hepatic vascular changes (grade) (liver tissue; paracetamol 500 mg/kg IP alone): mild (mild change - 1 (initiation of changes, up to 30%))
Renal inflammatory changes (grade) (kidney tissue; paracetamol 500 mg/kg IP alone): mild (mild change - 1 (initiation of changes, up to 30%))
Renal vascular changes (grade) (kidney tissue; paracetamol 500 mg/kg IP alone): mild (mild change - 1 (initiation of changes, up to 30%))
Heart inflammatory changes (grade) (heart tissue; paracetamol 500 mg/kg IP alone): mild (mild change - 1 (initiation of changes, up to 30%))
Heart vascular congestion (grade) (heart tissue; paracetamol 500 mg/kg IP alone): mild (mild change - 1 (initiation of changes, up to 30%))
Amount undergoing P450 mediated oxidation to NAPQI (P450): ~ 5%

SMILES: CCNCCNC(=O)c1c(C)[nH]c(/C=C2\C(=O)Nc3ccc(F)cc32)c1C [SU12662]
Half-life [3]: 80 to 110 h
Bound to plasma proteins (plasma proteins): 90%
Bound to mouse plasma proteins (mouse plasma proteins): 95%
Brain penetration, percent of plasma concentrations [4]: 30%-40
Brain penetration, times the plasma concentration [5]: 4-7 times

BUN serum concentration (Male ICR mice [2]; [15]): 20.08 ± 2.54 mg/dL
Creatinine serum concentration (Male ICR mice [2]; [15]): 0.535 ± 0.033 mg/dL
BUN serum concentration (Male ICR mice [2]; [16]): 17.5 ± 1.25 mg/dL
Creatinine serum concentration (Male ICR mice [2]; [16]): 0.594 ± 0.082 mg/dL
BUN serum concentration (Male ICR mice [2]; [17]): 19.71 ± 0.58 mg/dL
Creatinine serum concentration (Male ICR mice [2]; [17]): 0.528 ± 0.064 mg/dL
BUN serum concentration (Male ICR mice [2]; [18]): 17.62 ± 0.94 mg/dL
Creatinine serum concentration (Male ICR mice [2]; [18]): 0.533 ± 0.060 mg/dL
BUN serum concentration (Male ICR mice [2]; [19]): 26.68 ± 6.05 mg/dL
Creatinine serum concentration (Male ICR mice [2]; [19]): 0.559 ± 0.051 mg/dL
BUN concentrations, range of group means (Male ICR mice [2]; [14]): 17.50 to 26.68 mg/dL
Creatinine serum concentration, range of group means (Male ICR mice [2]; [14]): 0.528 to 0.594 mg/dL
Renal inflammatory changes (kidney tissue; sunitinib alone PO, doses below 140 mg/kg, 4 h): no signs of inflammatory changes
Heart inflammatory changes (heart tissue; sunitinib alone PO, 4 h): no inflammatory changes
Spleen inflammatory changes (spleen): no inflammatory changes
Spleen vascular changes (spleen): did not reveal any vascular changes
SMILES: CCN(CC)CCNC(=O)c1c(C)[nH]c(/C=C2\C(=O)Nc3ccc(F)cc32)c1C [Sunitinib]
ALT serum concentration (Male ICR mice [1]; [9]): 61.40 ± 26.57 U/L
AST serum concentration (Male ICR mice [1]; [9]): 204.6 ± 50.3 U/L
ALT serum concentration (Male ICR mice [1]; [10]): 36.75 ± 12.15 U/L
AST serum concentration (Male ICR mice [1]; [10]): 204.4 ± 49.4 U/L
ALT serum concentration (Male ICR mice [1]; [11]): 75.02 ± 20.37 U/L
AST serum concentration (Male ICR mice [1]; [11]): 290.3 ± 77.7 U/L
ALT serum concentration (Male ICR mice [1]; [12]): 47.61 ± 24.50 U/L
AST serum concentration (Male ICR mice [1]; [12]): 243.0 ± 66.4 U/L
ALT serum concentration (Male ICR mice [1]; [13]): 50.89 ± 18.90 U/L
AST serum concentration (Male ICR mice [1]; [13]): 239.5 ± 65.9 U/L
ALT serum concentration, range of group means (Male ICR mice [1]; [14]): 36.75-75.02 U/L
AST serum concentration, range of group means (Male ICR mice [1]; [14]): 204.4-290.3 U/L and 204.64 - 290.28 U/L
Hepatic inflammatory changes (grade) (liver tissue; [20]): mild (mild change - 1 (initiation of changes, up to 30%))
Hepatic vascular changes (grade) (liver tissue; [20]): mild (mild change - 1 (initiation of changes, up to 30%))
Renal inflammatory changes (kidney tissue; sunitinib alone 140 mg/kg PO, 4 h): some tubular necrosis
Renal vascular changes (grade) (kidney tissue; sunitinib alone 25-140 mg/kg PO, 4 h): mild (mild change - 1 (initiation of changes, up to 30%))
Cardiotoxicity (damage grade) (heart tissue; 25 - 80 mg/kg doses of sunitinib, reduction in relation to the paracetamol group): no damage to moderate damage
Heart vascular congestion (grade) (heart tissue; sunitinib alone PO, 4 h): mild (mild change - 1 (initiation of changes, up to 30%))
Brain histopathological changes (brain tissue; sunitinib alone PO at high doses): toxicity decreased
Brain histopathological changes (brain tissue; sunitinib alone PO at low doses (p < 0.05 at 25 and 80 mg/kg)): Some congestion of vessels at the 'cortical junction' as well as evidence of liquefactive necrosis
Dose eliminated in the faeces [3]: 61%
Half-life [3]: 40 to 60 h
Recovered unchanged in urine [3]: around 16%
Time after dosing at which maximum plasma concentration is reached [3]: 6 to 12 h
Bound to albumin (plasma proteins): 95%
Elimination half-life ([6]; after oral administration): 1.5 to 7.6 h
Time within which maximum concentration is achieved [6]: 0.5 to 6 h
Bound to mouse plasma proteins (mouse plasma proteins): 91%
Brain penetration, percent of plasma concentrations [4]: 30%-40
Brain penetration, times the plasma concentration [5]: 4-7 times
